The NIST ThermoML archive (doi:10.1021/je049712l)
Numbers after ± are expanded uncertainties.

Settings: 101.33 kPa, Liquid, Vibrating tube method

mass density (273 K): 800 ± 24 kg/m3
mass density (298 K): 787 ± 24 kg/m3
mass density (303 K): 786 ± 24 kg/m3
mass density (313 K): 779 ± 24 kg/m3
mass density (323 K): 768 ± 24 kg/m3
Structure (SMILES): CO [methanol]
